Where “and” joins values, the source holds several entries; their conditions need not be identical. Equal values may be shown once.

For one test, the target named is T1, recombinant BRD4 BD1 (Homo sapiens, UniProt O60885).
T1 construct: recombinant BRD4 BD1 and BRD4 BD2 proteins
In words: Competitive fluorescence-polarization (FP) binding assay, BRD4 BD1. The following applies: FP competitive binding; protein 10 nM, probe 1.5 nM; read-out: IC50 (nM) BRD4 BD1.
As for `C#Cc1ccc2c(c1Cc1ccccc1)COCc1nnc(C)n1-2` [Cpd. No. 83, 7-benzyl-8-ethynyl-1-methyl-4,6-dihydrobenzo[e][1,2,4]triazolo[3,4-c][1,4]oxazepine], the IC50 was determined as 150 nM.

As for `Cc1nnc2n1-c1ccc(Cl)c(Br)c1COC2` [Cpd. No. 70, 7-bromo-8-chloro-1-methyl-4,6-dihydrobenzo[e][1,2,4]triazolo[3,4-c][1,4]oxazepine], the half-maximal inhibitory concentration (IC50) was more than 10000 nM.

For the compound `Cc1nnc2n1-c1ccc(-c3ccc(N)nc3)c(Cc3ccccc3)c1COC2` [Cpd. No. 72, 5-(7-benzyl-1-methyl-4,6-dihydrobenzo[e][1,2,4]triazolo[3,4-c][1,4]oxazepin-8-yl)pyridin-2-amine], the IC50 is 2070 nM and 1980 nM.

Take `Cc1nnc2n1-c1ccc(-c3cn[nH]c3)c(Cc3ccccc3)c1COC2` [Cpd. No. 75, 7-benzyl-1-methyl-8-(1H-pyrazol-4-yl)-4,6-dihydrobenzo[e][1,2,4]triazolo[3,4-c][1,4]oxazepine]: the 50% inhibitory concentration (IC50) turned out to be 923 nM.

Consider `Cc1nnc2n1-c1ccc(-c3ccoc3)c(Cc3ccccc3)c1COC2` [Cpd. No. 80, 7-benzyl-8-(furan-3-yl)-1-methyl-4,6-dihydrobenzo[e][1,2,4]triazolo[3,4-c][1,4]oxazepine], for which the IC50 amounted to 532 nM.

Take `Cc1cc2c(s1)-n1c(C)nnc1COC2` [Cpd. No. 1, 2,9-dimethyl-4H,6H-thieno[2,3-e][1,2,4]triazolo[3,4-c][1,4]oxazepine]: the IC50 is 66900 nM.

With `Cc1nnc2n1-c1cccc(C3=CCCCc4ccccc43)c1COC2` [Cpd. No. 59, 7-(6,7-dihydro-5H-benzo[7]annulen-9-yl)-1-methyl-4,6-dihydrobenzo[e][1,2,4]triazolo[3,4-c][1,4]oxazepine], the IC50 was 966 nM.

Consider `Cc1sc2c(c1C1=CCCc3ccc(F)cc31)COCc1nnc(C)n1-2` [Cpd. No. 58, 3-(7-fluoro-3,4-dihydronaphthalen-1-yl)-2,9-dimethyl-4,6-dihydrothieno[2,3-e][1,2,4]triazolo[3,4-c][1,4]oxazepine], for which the IC50 was 289 nM.

For `Cc1nnc2n1-c1ccc(C#C[Si](C)(C)C)c(Cc3ccccc3)c1COC2` [Cpd. No. 82, 7-benzyl-1-methyl-8-((trimethylsilyl)ethynyl)-4,6-dihydrobenzo[e][1,2,4]triazolo[3,4-c][1,4]oxazepine], the IC50 stood at 500 nM.

Take `Cc1nnc2n1-c1ccc(C3CCOC3)c(Cc3ccccc3)c1COC2` (stereo not drawn) [Cpd. No. 81, 7-benzyl-1-methyl-8-(tetrahydrofuran-3-yl)-4,6-dihydrobenzo[e][1,2,4]triazolo[3,4-c][1,4]oxazepine]: the IC50 was found to be 5420 nM.

Turning to `Cc1sc2c(c1COC(C)(C)C)COCc1nnc(C)n1-2` [Cpd. No. 108, 3-(tert-butoxymethyl)-2,9-dimethyl-4H,6H-thieno[2,3-e][1,2,4]triazolo[3,4-c][1,4]oxazepine], the IC50 stood at 5000 nM.

Turning to `Cc1nnc2n1-c1ccc(C3=COCC3)c(Cc3ccccc3)c1COC2` [Cpd. No. 78, 7-benzyl-8-(4,5-dihydrofuran-3-yl)-1-methyl-4,6-dihydrobenzo[e][1,2,4]triazolo[3,4-c][1,4]oxazepine], the IC50 stood at 1320 nM.

For `Cc1nnc2n1-c1sc(C3=CCOCC3)c(Cc3ccccc3)c1COC2` [Cpd. No. 95, 3-benzyl-2-(3,6-dihydro-2H-pyran-4-yl)-9-methyl-4H,6H-thieno[2,3-e][1,2,4]triazolo[3,4-c][1,4]oxazepine], the IC50 was 1820 nM.

Consider `Cc1sc2c(c1Cn1cccc1)COCc1nnc(C)n1-2` [Cpd. No. 107, 3-((1H-pyrrol-1-yl)methyl)-2,9-dimethyl-4H,6H-thieno[2,3-e][1,2,4]triazolo[3,4-c][1,4]oxazepine], for which the IC50 worked out at 494 nM.

The test is the same for the next values; noted with them: IC50 (nM) BRD4 BD1, FP competitive binding; protein 10 nM, probe 1.5 nM.
As to `Cc1nnc2n1-c1ccc(Cl)c(C3=CCCc4ccccc43)c1COC2` [Cpd. No. 74, 8-chloro-7-(3,4-dihydronaphthalen-1-yl)-1-methyl-4,6-dihydrobenzo[e][1,2,4]triazolo[3,4-c][1,4]oxazepine], the IC50 is 1780 nM.
